Source: patent publication US7910091B2, “System for trapping flying insects with attractant lures” (Woodstream Corporation, priority 2002, dated 2011)

How the values were obtained:
[1] = cited from earlier work
[2] = tested on: flying insects; assay: Additional trap trials: lactic acid lures vs 1-octen-3-ol, Liberty trap with and without lure (FIG. 5); format: in vivo; conditions: for Insect capture counts (FIG. 5), in words: compared with CO2 only control / with lactic acid lures
Text: Also surprising were the results of a trial running a Mosquito Magnet® Liberty trap (American Biophysics Corporation, East Greenwich, R.I., USA) with and without lactic acid lures. […] The addition of a lactic acid lure increased the capture count to about 4,700 flying insects, a surprising enhancement over the effectiveness of the device using CO2 alone. The trial test data are graphically depicted in FIG. 5.

[3] = tested on: mosquitoes; assay: China test, Mosquito Magnet Liberty traps, total catch of mosquitoes; format: in vivo; conditions: Wuhu
Text: (§1) Mosquito types found in China include Culex pipiens pallens (majority), A. albopictus, Anopheles sinensis (minority), and […] subalbatus (minority). […] The daily mosquito catch depended mainly on the seasonal distribution of mosquitoes. […] Mosquito Magnet® Liberty traps were used in this example.

[4] = tested on: A. Albopictus; assay: China test, Mosquito Magnet Liberty traps, catch of A. albopictus; format: in vivo; conditions: with CO2, Liberty trap, July 2002, Wuhu, catching in 12 hours
Text: as §1

[5] = tested on: mosquitoes; assay: Hawaii field test of lactic acid lures in Mosquito Magnet traps, total mosquito catch; format: in vivo, Culex quinquefasciatus Aedes albopictus, et al.; conditions: w/CO2, average caught in 48 hours
Protocol: (§2) […] Sample vials containing lactic acid impregnated frits were replaced every 2 days to ensure measurement uniformity. Measured release rates were approximately 4.0 mg/hr to 20 mg/hr. Controls were run with a Professional trap device lacking a lactic acid lure. The number of mosquitoes retained in the catch bag of the insect trapping devices was quantitated for test sample and control runs.
(§3) The comparison between lactic acid/CO2 and CO2 only used as lures in Mosquito Magnet® Professional (PRO) and Liberty traps are shown in Table 8.

[6] = tested on: A. albopictus; assay: Hawaii field test of lactic acid lures in Mosquito Magnet traps, A. albopictus catch; format: in vivo, Aedes albopictus; conditions: w/CO2, average caught in 48 hours
Protocol: as §2, §3

[7] = tested on: Culex pipiens pallens; assay: China indoor test of Lurex; format: in vivo; conditions: CO2 without Lurex, Hefei basement, July 2002, catching in 24 hours
Text: as §1

[8] = cited from earlier work; remark: listed apart in the source
[9] = @ 25° C.; cited from earlier work
[10] = Acute toxicity LD50 oral rat; format: in vivo
Text: A particularly beneficial aspect of using biochemical lures to trap mosquitoes is the large margin of safety associated therewith, particularly when compared with traditional chemical attractants.

[11] = Laboratory release rate test of lactic acid from impregnated frit cartridges in exhaust nozzle; format: physicochemical
Text: Packaging of the sample L-(+)-lactic acid solution was selected with the goal of maximizing efficient dispersal of the lactic acid in the CO2 exhaust plume of the insect trapping device. […] Each frit was impregnated with was 3.5 g to 4.5 g of liquid lactic acid. Release rate testing was initially performed under laboratory conditions to assess the dispersal characteristics of L-(+)-lactic acid from impregnated frit cartridges. The sample vial with its cap removed was placed in a “basket-style” housing having numerous apertures/openings to permit release of lactic acid vapors from the impregnated frit. The housing of the supplemental insect attractant element was inserted into the exhaust nozzle of an insect trapping device. Lactic acid release was measured at two temperatures for comparison purposes. Exhaust plume temperature was set at 87° F. and then 97°°F., accordingly. […] At a constant temperature, here 87°°F., the release rate of lactic acid decreased with time. […] The useful life of a frit cartridge impregnated with liquid L-(+)-lactic acid may vary depending upon the amount of attractant initially loaded into the cartridge, and the environmental conditions to which the cartridge is subjected. The ultimate use- or release-time of a given cartridge can be tailored to meet the release rate needs of a particular environmental condition. […] Longer periods of release are anticipated for polymeric formulations of attractant compositions.

[12] = PRO trap, February to March 2002
[13] = PRO trap, January 2002, listed as Liquid lactic acid
[14] = Liberty trap, February to March 2002
[15] = PRO trap, January 2002, higher release rate

C=CC(O)CCCCC (stereo not shown) [1-octen-3-ol, reference compound]
LD50/oral/rat [1]: 340 mg/kg
Insect capture counts (FIG. 5), in words [2]: quite inefficient
Flying insects trapped ([2]; one trial, over a two-day period, CO2 plume generating devices): less than 100
Sensitivity of mosquitoes in China to the chemical compared to CO2, in words ([3]; Hefei, Shanghai, Liberty traps): do not seem significantly sensitive
Total catch of mosquitoes ([3]; with CO2, Liberty trap, July 2002, China, catching in 12 hours): 196
Catch of A. Albopictus [4]: 14
Total catch of mosquitoes [5, 12]: 92
Catch of A. Albopictus [6, 12]: 13

O=C=O [CO2, carbon dioxide]
Total catch of mosquitoes (Culex pipiens pallens) [7]: 605

CC(O)C(=O)O (stereo not drawn) [FCC 88, L(+)-lactic acid, 2-hydroxy-propionic acid]
LD50/dermal/rabbit [8]: 2000 mg/kg
pH [9]: <2 @ 25 °C
Times less toxic than 1-octen-3-ol [10]: about 11 times
Capture count of flying insects ([2]; Liberty trap with CO2 plus lure, two-day period): about 4,700
Insect capture counts (FIG. 5), in words [2]: substantially improve insect capture counts
Release rate ([11]; 87° F., time released 0-48 hrs, impregnated frit): 4.0 to 20 mg/h
Release rate ([11]; 87° F., time released 3-8 days, impregnated frit): 2.0 to 3.5 mg/h
Release rate ([11]; 97-100° F., 5-9th day, same sample tested before at 87° F.): 5.0 to 7.1 mg/h
Estimated time of use of cartridge ([11]; cartridge of 3.5 g liquid L-(+)-lactic acid, average release rate 5 mg/hr to 10 mg/hr): 2 to 4 weeks
Total catch of mosquitoes [5, 13]: 313.5
Catch of A. Albopictus [6, 13]: 26

CC(O)C(=O)O (stereo not shown) [Solid lactic acid]
Total catch of mosquitoes [5, 14]: 2537
Total catch of mosquitoes [5, 12]: 243
Total catch of mosquitoes ([5]; PRO trap, January 2002): 136
Total catch of mosquitoes [5, 15]: 384
Catch of A. Albopictus [6, 14]: 12.7
Catch of A. Albopictus [6, 12]: 52
Catch of A. Albopictus ([6]; PRO trap, January 2002): 30
Catch of A. Albopictus [6, 15]: 116
